Experiments:
Format in all cases: in vivo, mouse
[1] = system: endothelial progenitor cells (EPCs), double positive KDR+/CD34+ cells, in blood; assay: Blood EPC levels by FACS after oral dosing in mice; conditions: for Blood EPCs / Percent Blood EPCs: blood 6 h after final dose; for Blood EPCs Fold Increase Over Control / Percent Blood EPCs Fold Increase Over Control: vs vehicle control
Method: (§1) To examine the effect of compounds and methods of the present invention on endothelial progenitor cell (EPC) mobilization and EPC levels, the following studies were performed. Male Swiss-Webster mice were administered various compounds of the present invention via oral gavage using a ball-tipped gavage needle. Animals treated by oral gavage received a 10 ml/kg volume of either 0.5% carboxymethyl cellulose (CMC) with 0.1% Polysorbate 80 (vehicle control) or various doses (10-100 mg/kg) of a compound of the present invention in 0.5% CMC with 0.1% Polysorbate 80. Animals were dosed once daily for 3 or 4 days. Six hours after the final dosing, 200 μl blood samples were collected for detection of EPCs by FACS analysis as previously described. (Vasa et al. (2001) Circ Res 89:e1-e7.) Briefly, mononuclear cells were isolated from whole blood samples by erythrocyte depletion using red blood cell lysis buffer (eBioscience) according to the manufacturer's instructions. The remaining cells were incubated for one hour with monoclonal antibodies directed against mouse CD34 and mouse KDR, cell surface markers for EPCs (BD Pharmingen). Following incubation with the anti-CD34 and anti-KDR monoclonal antibodies, the samples were washed three times with sort buffer (PBS, 1% fetal bovine serum) and resuspended in sort buffer containing 50 μg/ml of propidium iodide. Samples were then analyzed for the presence and quantitation of EPCs by flow cytometry (FACS Calibur, Becton Dickinson). The cytometer was set to acquire 10 000 events. Two or three samples obtained from each animal were analyzed and the average recorded. EPCs were determined as double positive KDR+/CD34+ cells.

[2] = system: endothelial progenitor cells (EPCs), KDR+/CD34+ cells, in bone marrow; assay: Bone marrow EPC levels by FACS after oral dosing in mice; conditions: for Percent Bone Marrow EPCs: tibia bone marrow 6 h after final dose; for Percent Bone Marrow EPCs Fold Increase Over Control: vs vehicle control
Method: as §1
To examine the effect of compounds and methods of the present invention on EPC levels in bone marrow, the following studies were performed. Male Swiss-Webster mice were administered various compounds of the present invention via oral gavage using a ball-tipped gavage needle. Animals treated by oral gavage received a 10 ml/kg volume of either 0.5% carboxymethyl cellulose (CMC) with 0.1% Polysorbate 80 (vehicle control) or various doses (10-100 mg/kg) of a compound of the present invention in 0.5% CMC with 0.1% Polysorbate 80. Animals were dosed once daily for 3 or 4 days. Six hours after the final dosing, bone marrow samples were taken from one tibia of each animal and suspended in buffer (PBS with 1% fetal bovine serum). Bone marrow suspensions were then filtered through nylon filters to remove stromal cells. Following filtration, the remaining cells were counted manually using a hemocytometer. Detection and quantitation of EPCs was performed by FACS analysis as described above in Example 1.

[3] = system: colony-forming unit-endothelial cells (CFU-EC) from blood; assay: EPC colony forming assay (CFU-EC) ex vivo, blood of dosed mice; conditions: for Blood CFU-EC: blood 6 h after final dose, 12 days culture; for Blood CFU-EC Fold Increase Over Control: vs vehicle control
Method: To examine the effect of compounds and methods of the present invention on increasing EPCs, wherein the EPCs are functional EPCs, i.e., EPCs that are able to differentiate into mature endothelial cells, the following studies were performed in which the frequency of endothelial colony-forming cells was evaluated ex vivo. In one series of experiments, male Swiss-Webster mice were administered various compounds of the present invention via oral gavage using a ball-tipped gavage needle. Animals treated by oral gavage received a 10 ml/kg volume of either 0.5% carboxymethyl cellulose (CMC) with 0.1% Polysorbate 80 (vehicle control) or various doses (10-100 mg/kg) of a compound of the present invention in 0.5% CMC with 0.1% Polysorbate 80. Animals were dosed once daily for 3 or 4 days. Six hours after the final dosing, 200 μl blood samples were collected for analysis of EPC function and differentiation using an EPC colony forming assay. EPC colony forming assays were carried out as previously described. (Murphy et al. (2007) Arterioscler Thromb Vasc Biol 27:936-942.) Briefly, mononuclear cells were isolated from whole blood samples by erythrocyte depletion using red blood cell lysis buffer (eBioscience) according to the manufacturer's instructions. The remaining cells (50,000 cells/well) were plated on fibronectin coated 24-well dishes (BD, BioSciences Discovery Labware) and incubated in endothelial growth media (EGM-2 media, Cambrex) for 12 days. At the end the incubation period, EPC colonies were counted.

[4] = system: colony-forming unit-endothelial cells (CFU-EC) from bone marrow; assay: EPC colony forming assay (CFU-EC) ex vivo, bone marrow of dosed mice; conditions: for Bone Marrow CFU-EC: tibia bone marrow 6 h after final dose, 12 days culture; for Bone Marrow CFU-EC Fold Increase Over Control: vs vehicle control
Method: EPC colony forming assays were carried out as previously described. (Murphy et al. (2007) Arterioscler Thromb Vasc Biol 27:936-942.) Briefly, mononuclear cells were isolated from whole blood samples by erythrocyte depletion using red blood cell lysis buffer (eBioscience) according to the manufacturer's instructions. The remaining cells (50,000 cells/well) were plated on fibronectin coated 24-well dishes (BD, BioSciences Discovery Labware) and incubated in endothelial growth media (EGM-2 media, Cambrex) for 12 days. At the end the incubation period, EPC colonies were counted. In another series of experiments, male Swiss-Webster mice were administered various compounds of the present invention via oral gavage using a ball-tipped gavage needle. Animals treated by oral gavage received a 10 ml/kg volume of either 0.5% carboxymethyl cellulose (CMC) with 0.1% Polysorbate 80 (vehicle control) or various doses (10-100 mg/kg) of a compound of the present invention in 0.5% CMC with 0.1% Polysorbate 80. Animals were dosed once daily for 3 or 4 days. Six hours after the final dosing, bone marrow samples were taken from one tibia of each animal. Bone marrow samples were then analyzed for EPC function and differentiation using an EPC colony forming assay as described above.

[5] = 60 mg/kg oral gavage once daily, 3 days
[6] = 100 mg/kg oral gavage once daily, 4 days

## COc1ccc(Oc2ccc3c(O)c(C(=O)NCC(=O)O)ncc3c2)cc1 [Compound A, {[4-Hydroxy-7-(4-methoxy-phenoxy)-isoquinoline-3-carbonyl]-amino}-acetic acid]
[1]; [5]
  Blood EPCs: 24.7 cells/μl
  Percent Blood EPCs: 2.6 % gated cells
[1]; 60 mg/kg oral, 3 days
  Blood EPCs Fold Increase Over Control: 2.4 fold
  Percent Blood EPCs Fold Increase Over Control: 2.0 fold
[1]; [6]
  Blood EPCs: 309.0 cells/μl
  Percent Blood EPCs: 3.2 % gated cells
[1]; 100 mg/kg oral, 4 days
  Blood EPCs Fold Increase Over Control: 8.4 fold
  Percent Blood EPCs Fold Increase Over Control: 4.7 fold
[2]; [5]
  Percent Bone Marrow EPCs: 6.7 % gated cells
[2]; 60 mg/kg oral, 3 days
  Percent Bone Marrow EPCs Fold Increase Over Control: 2.0 fold
[2]; [6]
  Percent Bone Marrow EPCs: 14.1 % gated cells
[2]; 100 mg/kg oral, 4 days
  Percent Bone Marrow EPCs Fold Increase Over Control: 1.8 fold
[3]; [5]
  Blood CFU-EC: 16.8 colonies/50,000 cells
[3]; 60 mg/kg oral, 3 days
  Blood CFU-EC Fold Increase Over Control: 8.4 fold
[3]; [6]
  Blood CFU-EC: 17.8 colonies/50,000 cells
[3]; 100 mg/kg oral, 4 days
  Blood CFU-EC Fold Increase Over Control: 3.63 fold
[4]; [5]
  Bone Marrow CFU-EC: 29.0 colonies/50,000 cells
[4]; 60 mg/kg oral, 3 days
  Bone Marrow CFU-EC Fold Increase Over Control: 3.0 fold
[4]; [6]
  Bone Marrow CFU-EC: 24.8 colonies/50,000 cells
[4]; 100 mg/kg oral, 4 days
  Bone Marrow CFU-EC Fold Increase Over Control: 3.2 fold

## Cc1nc(C(=O)NCC(=O)O)c(O)c2ccc(Oc3ccccc3)cc12 [Compound B, [(4-Hydroxy-1-methyl-7-phenoxy-isoquinoline-3-carbonyl)-amino]-acetic acid]
[1]; [5]
  Blood EPCs: 10.4 cells/μl
  Percent Blood EPCs: 1.0 % gated cells
[1]; 60 mg/kg oral, 3 days
  Blood EPCs Fold Increase Over Control: 1.0 fold
  Percent Blood EPCs Fold Increase Over Control: 0.8 fold
[1]; [6]
  Blood EPCs: 304.0 cells/μl
  Percent Blood EPCs: 3.0 % gated cells
[1]; 100 mg/kg oral, 4 days
  Blood EPCs Fold Increase Over Control: 8.2 fold
  Percent Blood EPCs Fold Increase Over Control: 4.3 fold
[2]; [5]
  Percent Bone Marrow EPCs: 9.0 % gated cells
[2]; 60 mg/kg oral, 3 days
  Percent Bone Marrow EPCs Fold Increase Over Control: 2.7 fold
[2]; [6]
  Percent Bone Marrow EPCs: 16.1 % gated cells
[2]; 100 mg/kg oral, 4 days
  Percent Bone Marrow EPCs Fold Increase Over Control: 2.1 fold
[3]; [5]
  Blood CFU-EC: 12.4 colonies/50,000 cells
[3]; 60 mg/kg oral, 3 days
  Blood CFU-EC Fold Increase Over Control: 6.2 fold
[3]; [6]
  Blood CFU-EC: 9.3 colonies/50,000 cells
[3]; 100 mg/kg oral, 4 days
  Blood CFU-EC Fold Increase Over Control: 1.9 fold
[4]; [5]
  Bone Marrow CFU-EC: 22.0 colonies/50,000 cells
[4]; 60 mg/kg oral, 3 days
  Bone Marrow CFU-EC Fold Increase Over Control: 2.2 fold
[4]; [6]
  Bone Marrow CFU-EC: 22.4 colonies/50,000 cells
[4]; 100 mg/kg oral, 4 days
  Bone Marrow CFU-EC Fold Increase Over Control: 2.9 fold
